Results taken from the NIST ThermoML archive (doi:10.1021/je200969r).

Experiment: refractive index (other wavelength) (dimensionless)
Conditions: 101.33 kPa, Liquid, Minimum Deviation technique

[2H]O[2H] [water-d2]
refractive index
Conditions	Wavelength=543.5 nm	Wavelength=594.1 nm	Wavelength=632.8 nm
288.35 K	1.33	1.3283	1.3272
293.29 K	1.3298	1.3281	1.327
298.12 K	1.3293	1.3278	1.3267
303.15 K	1.3285	1.3271	1.326
308.09 K	1.328	1.3266	1.3254
313.11 K	1.3275	1.3259	1.3249
318.13 K	1.3269	1.3254	1.3243
323.14 K	1.3263	1.3248	1.3237
328.12 K	1.3251	1.3236	1.3225
333.06 K	1.3244	1.3229	1.3219
337.98 K	1.3237	1.3221	1.3211
